{"source": "patent US20190192455A1", "about": "“USE OF CELIPROLOL FOR TREATING KYPHOSCOLIOTIC EHLERS-DANLOS SYNDROME” (Assistance Publique-Hospitaux de Paris (AP-HP), priority 2017, published 2019)", "key": {"[1]": {"system": "kyphoscoliotic EDS patient", "assay": "Case report: celiprolol in prevention of further arterial events in a kyphoscoliotic EDS patient", "type": "in vivo, human", "description": "All ruptures occurred following minor trauma. The right eye ruptured twice, the left eye once only. […] Their family history was remarkable by the death of their only and younger sibling, by spontaneous abdominal aortic rupture. Their phenotype was similar to their […] sibling's.\nPhysical examination evidenced major cutaneous fragility (bruising) and dystrophic scars. […] furthermore presented a severe kyphoscoliosis and diffuse joint hypermobility (Beighton score 8/9) with instability, particularly of the left shoulder (recurrent dislocations). Further osteoarticular signs were pes planus and minor pectus excavatum. […] The dissecting aneurysm of the celiac trunk also remained stable and a complete regression of the extension of the dissection to the SMA was noted. Two years later, the patient presented with similar pain in the left calf. Doppler ultrasound documented a left tibial anterior dissecting aneurysm. This second clinical event also resolved medically. Celiprolol was initiated and up-titrated to the optimally tolerated dose (400 mg/day) in prevention of further arterial events."}, "vascular EDS patients": {"system": "vascular EDS patients", "settings": "vascular EDS patients taking celiprolol, compared to placebo (Ong et al., 2010); cited from earlier work"}}, "data": [{"compound": "CCN(CC)C(=O)Nc1ccc(OCC(O)CNC(C)(C)C)c(C(C)=O)c1", "note": "(stereo not shown) [Celiprolol, N′-(3-Acetyl-4-(3-((1,1-dimethylethyl)amino)-2-hydroxypropoxy)phenyl)-N, N-diethylurea]", "values": [{"measurement": "clinical course (arterial events) under celiprolol", "setting": "[1]; one patient with recurrent arterial dissections, up-titrated to 400 mg/day, 3 years follow-up", "result": "remained clinically silent"}, {"measurement": "systematic arterial monitoring for silent arterial defects", "setting": "[1]; same patient, 400 mg/day, 3 years follow-up", "result": "did not evidence further silent arterial defects"}, {"measurement": "novel arterial manifestation under celiprolol treatment", "setting": "[1]; same patient, four year follow-up", "result": "without novel arterial manifestation"}, {"measurement": "incidence of arterial rupture or dissection", "setting": "vascular EDS patients", "result": "decreased incidence of arterial rupture or dissection"}]}]}
